We go through two molecules from patent US20060167083A1, “Therapeutic methods and compositions involving isoflav-3-ene and isoflavan structures” (priority 2002, published 2006).

SMILES strings stand for the structures.

Assay type in all cases: biochemical
Test [1] concerns the target T1, human topo I (Homo sapiens, UniProt P11387).
T1 construct: purchased Topogen (Columbus, Ohio)
T1 sequence (P11387 1-765): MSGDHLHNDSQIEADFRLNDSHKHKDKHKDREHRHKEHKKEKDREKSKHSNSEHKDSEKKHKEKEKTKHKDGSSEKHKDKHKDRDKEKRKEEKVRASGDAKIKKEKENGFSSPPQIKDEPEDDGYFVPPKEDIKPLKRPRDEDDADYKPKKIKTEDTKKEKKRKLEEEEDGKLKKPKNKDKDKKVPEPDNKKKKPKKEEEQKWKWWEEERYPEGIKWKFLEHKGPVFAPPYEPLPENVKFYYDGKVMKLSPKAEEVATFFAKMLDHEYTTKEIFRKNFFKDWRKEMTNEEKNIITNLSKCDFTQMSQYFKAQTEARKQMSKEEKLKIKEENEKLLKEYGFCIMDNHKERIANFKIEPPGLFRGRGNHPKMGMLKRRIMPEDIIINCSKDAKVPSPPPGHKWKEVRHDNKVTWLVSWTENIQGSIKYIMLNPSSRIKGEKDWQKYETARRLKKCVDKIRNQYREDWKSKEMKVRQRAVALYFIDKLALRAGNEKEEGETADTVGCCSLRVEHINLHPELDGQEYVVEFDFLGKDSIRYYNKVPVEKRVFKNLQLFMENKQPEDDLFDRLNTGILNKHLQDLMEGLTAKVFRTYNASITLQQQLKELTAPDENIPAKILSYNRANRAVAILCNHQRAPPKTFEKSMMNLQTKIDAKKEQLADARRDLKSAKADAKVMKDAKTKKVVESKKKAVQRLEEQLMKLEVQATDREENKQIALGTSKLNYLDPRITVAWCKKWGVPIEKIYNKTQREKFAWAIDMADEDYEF
As to the kind of experiment: Topo I-mediated plasmid relaxation assay. The settings on record: 10 μg/ml.
Description: Topo I activity was determined by converting supercoiled pUC8 DNA (SC) into its relaxed from (REL).
For the determination of topoisomerase (topo) I catalytic activity, pUC8 DNA was used as the substrate in a reaction volume of 20 μl containing the following: 10 mM Tris-HCl, pH 7.9, 1 mM EDTA, 150 mM NaCl, 0.1% BSA, 0.1 mM spermidine, 5% glycerol, and 2 units of purified human topo I. The inhibitor, when applicable, was added as indicated, and the reaction was initiated by the addition of the enzyme. Reactions were carried out at 37° C. for 30 min. Gel electrophoresis was performed at 4 V/cm for 5 h in Tris-borate-EDTA buffer. For the quantitative determination of topo I activity, photographic negatives were scanned. The area representing supercoiled DNA, migrating as a single band at the bottom of the gel, was determined. The concentrations of the inhibitor that prevented 50% of the supercoiled DNA from being converted into relaxed DNA (IC50 values) were determined by averaging the data from at least three experiments.

The target of test [2] is T1, human topo I. Description: Topo I-mediated plasmid-nicking assay. The settings on record: 10 and 100 μg/ml (FIG. 4 lanes 5 and 6).
Description: Single-strand DNA breakage was determined by converting relaxed (REL) or supercoiled (SC) pUC8 DNA to the nicked form (NIC).
Under the electrophoretic conditions that were used in the experiment shown in FIG. 4, covalently closed circular (supercoiled or relaxed) plasmid DNA migrates on the bottom of the gel. In the presence of a topo I poison that stabilises the cleavable complex, and following denaturation and degradation of the enzyme with proteinase K/SDS, the resulting nicked DNA migrates on the top of the gel.
Topo I poisons enhance topo I-mediated pUC8 DNA cleavage under the reaction conditions provided by the supplier of the enzyme (Topogen, Inc.). Briefly, 20 μl of reaction mixtures contained 10 mM Tris-HCl, pH 7.5, 1 mM EDTA, 100 mM NaCl, 1 μl of the test agent (or solvent), 0.5 μg of pUC8, and 10 units of human topo I (added last). After a 30-min incubation at 37° C., SDS-proteinase K was added, and, following a 30-min incubation at 37° C., samples were extracted with CHCl3-isopropanol and electrophoresed on a 1% agarose gel containing 0.5 μg/ml ethidium bromide. Gels were photographed, and photographic negatives were scanned.
Test [3] addresses T2, human topo II (Homo sapiens, UniProt P11388).
T2 construct: purchased Topogen (Columbus, Ohio)
Description: Topo II-mediated plasmid linearisation assay. The protocol:
FIG. 3 represents an assay for determining the effect of dehydroequol on double-stranded DNA cleavage. pRYG DNA was incubated with ten units of human topo II (lanes 2-6) in the absence (lane 1) or presence of 10, 30, or 100 μg/ml dehydroequol (lanes 2-4), or 30 μg/ml genistein (lane 5), or 10 μg/ml VP-16 (lane 6). Lane 7, linear pUC8 DNA marker. Double-strand DNA breakage was determined by converting relaxed (REL) or supercoiled (SC) pRYG DNA to the linear (LIN) form.
A linearisation assay was employed to determine if dehydroequol is a topo II poison. Double-strand breakage results in the appearance of linear DNA. […] This effect, which was evident at 10 μg/ml, peaked at 30 μg/ml.
Topo II poisons enhance topo II-mediated DNA cleavage and can be identified with the linearisation assay under the reaction conditions provided by the supplier of the enzyme (Topogen, Inc.). Briefly, 20-μl reaction mixtures contained 30 mM Tris-HCl, pH 7.6, 3 mM ATP, 15 mM β-mercaptoethanol, 8 mM MgCl2, 60 mM NaCl, 1 μl of the test agent (or solvent), 0.3 μg of pRYG, and 10 units of human topo II (added last). After a 15-min incubation at 37° C., SDS-proteinase K was added, and following a 15 min incubation at 37° C., samples were extracted with CHCl3-isopropanol and electrophoresis was performed on a 1% agarose gel containing ethidium bromide. Gels were photographed, and photographic negatives were scanned.

T2 sequence (P11388 whole entry): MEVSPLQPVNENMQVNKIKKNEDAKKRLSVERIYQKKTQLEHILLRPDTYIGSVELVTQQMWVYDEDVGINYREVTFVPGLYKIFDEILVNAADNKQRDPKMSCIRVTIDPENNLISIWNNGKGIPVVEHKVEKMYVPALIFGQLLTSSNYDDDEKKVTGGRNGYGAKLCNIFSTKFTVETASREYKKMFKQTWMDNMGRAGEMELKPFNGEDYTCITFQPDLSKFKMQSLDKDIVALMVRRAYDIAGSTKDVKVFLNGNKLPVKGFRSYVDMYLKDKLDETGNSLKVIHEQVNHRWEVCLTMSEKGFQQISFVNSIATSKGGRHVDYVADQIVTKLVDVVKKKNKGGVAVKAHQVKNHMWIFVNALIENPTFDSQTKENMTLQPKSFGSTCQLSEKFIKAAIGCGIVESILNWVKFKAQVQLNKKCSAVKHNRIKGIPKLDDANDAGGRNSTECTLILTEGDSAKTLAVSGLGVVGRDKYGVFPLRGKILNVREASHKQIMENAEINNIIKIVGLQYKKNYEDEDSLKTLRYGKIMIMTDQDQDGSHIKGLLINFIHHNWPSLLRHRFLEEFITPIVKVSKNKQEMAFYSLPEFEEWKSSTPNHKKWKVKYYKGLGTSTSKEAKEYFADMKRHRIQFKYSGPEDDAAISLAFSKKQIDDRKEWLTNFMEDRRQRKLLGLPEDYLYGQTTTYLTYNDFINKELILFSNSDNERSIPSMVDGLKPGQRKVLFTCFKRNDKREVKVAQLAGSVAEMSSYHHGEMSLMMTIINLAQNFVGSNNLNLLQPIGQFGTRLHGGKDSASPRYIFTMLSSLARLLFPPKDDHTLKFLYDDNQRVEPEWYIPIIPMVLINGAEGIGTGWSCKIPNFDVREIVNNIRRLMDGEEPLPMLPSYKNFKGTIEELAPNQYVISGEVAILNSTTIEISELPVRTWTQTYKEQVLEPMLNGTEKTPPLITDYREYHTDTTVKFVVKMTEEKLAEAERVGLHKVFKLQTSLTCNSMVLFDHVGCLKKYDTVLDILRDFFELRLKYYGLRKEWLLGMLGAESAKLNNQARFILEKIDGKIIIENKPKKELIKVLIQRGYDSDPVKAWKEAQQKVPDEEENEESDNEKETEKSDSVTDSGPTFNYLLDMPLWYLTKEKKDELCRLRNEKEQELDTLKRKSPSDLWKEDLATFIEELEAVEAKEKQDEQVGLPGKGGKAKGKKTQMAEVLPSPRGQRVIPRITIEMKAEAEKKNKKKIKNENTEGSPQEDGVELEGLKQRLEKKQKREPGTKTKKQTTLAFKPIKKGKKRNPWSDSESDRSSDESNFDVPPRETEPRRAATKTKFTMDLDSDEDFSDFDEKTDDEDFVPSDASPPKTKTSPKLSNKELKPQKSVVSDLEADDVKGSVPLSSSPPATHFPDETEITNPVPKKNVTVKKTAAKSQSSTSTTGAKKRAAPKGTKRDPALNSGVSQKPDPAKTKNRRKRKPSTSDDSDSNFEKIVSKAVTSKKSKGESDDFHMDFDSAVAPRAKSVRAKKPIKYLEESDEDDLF

In the case of `CC[C@@]1(O)C(=O)OCc2c1cc1n(c2=O)Cc2cc3ccccc3nc2-1` [Camptothecin, reference compound], the “inhibition of topo I-catalysed relaxation of pUC8 DNA (positive control)” value in test [1] is on record as “prevents pUC8 DNA relaxation”. Moreover, in test [2], the “topo I-mediated single-strand DNA breakage (nicked DNA), positive control” value is “produced single-strand DNA cleavage”.
In the case of `O=c1c(-c2ccc(O)cc2)coc2cc(O)cc(O)c12` [genistein, reference compound], the “concentration producing detectable (comparable) topo II-mediated linear plasmid DNA” value in test [3] is 30 µg/mL.
